Measured values: patent US20230339937A1, “CONDENSED RING COMPOUNDS THAT INHIBIT H-PGDS” (SATO PHARMACEUTICAL CO., LTD., priority 2020, published 2023)

Target: T1, Recombinant human H-PGDS (Homo sapiens, UniProt O60760)
T1 construct: made in house; host or cells: E. coli
Test: H-PGDS inhibitory activity (prostaglandin D2 production from prostaglandin H2, measured by LC-MS/MS)
Type: biochemical
Conditions: recombinant human H-PGDS 1.0 nM expressed in E. coli; prostaglandin H2 25 μM; preincubated 15 minutes on ice, reacted on ice for 1 minute; concentration that inhibits prostaglandin D2 production by 50%
In short: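 Recombinant human H-PGDS (E. coli-expressed, 1.0 nM final) preincubated with compound 15 min on ice in 20 mM Tris-HCl pH 8.0, 2 mM MgCl2, 2 mM GSH, 0.5 mg/mL γ-globulin. Reaction with 25 µM PGH2 run 1 min on ice, stopped with FeCl2/citric acid, PGD2 quantified by LC-MS/MS. Activity expressed as % of DMSO control after subtracting non-enzymatic PGD2.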

T1 sequence (O60760 whole entry): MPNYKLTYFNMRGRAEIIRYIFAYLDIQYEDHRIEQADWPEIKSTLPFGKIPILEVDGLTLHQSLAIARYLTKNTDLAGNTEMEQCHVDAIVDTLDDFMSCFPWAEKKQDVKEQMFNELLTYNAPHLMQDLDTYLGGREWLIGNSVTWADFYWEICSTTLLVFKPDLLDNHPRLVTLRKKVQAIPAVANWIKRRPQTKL

Structure (SMILES)	IC50
Cn1nnc(N2CCC(NC(=O)c3ccc(-c4nccc5occc45)cc3)CC2)n1 [Example 249, 4-(furo[3,2-c]pyridin-4-yl)-N-[1-(2-methyl-2 H-tetrazol-5-yl)piperidin-4-yl]benzamide]	1.6 nM
Cc1cc(CNC(=O)c2ccc(-c3nccc4[nH]ccc34)cc2)nn1C [Example 38, N-[(1,5-dimethyl-1H-pyrazol-3-yl)methyl]-4-(1H-pyrrolo[3,2-c]pyridin-4-yl)benzamide]	1.3 nM
O=C(N[C@H]1CC[C@H](OCC2(O)CC2)CC1)c1ccc(-c2nccc3occc23)c(F)c1 [Example 347, 3-fluoro-4-(furo[3,2-c]pyridin-4-yl)-N-(trans-4-[(1-hydroxycyclopropyl)methoxy]cyclohexyl)benzamide]	2 nM
O=C(N[C@H]1CC[C@H](NCC(F)(F)F)CC1)c1ccc(-c2nccc3occc23)cc1 [Example 119, 4-(furo[3,2-c]pyridin-4-yl)-N-{trans-4-[(2,2,2-trifluoroethyl)amino]cyclohexyl}benzamide]	1.3 nM
CCOC(=O)c1cnc(N2CCC(NC(=O)c3ccc(-c4nccc5occc45)cc3)CC2)o1 [Example 254, ethyl 2-{4-[4-(furo[3,2-c]pyridin-4-yl)benzamide]piperidin-1-yl]oxazole-5-carboxylate]	4 nM
CC(C)(O)C(=O)N1CCC(NC(=O)c2ccc(-c3nccc4occc34)cc2)CC1 [Example 245, 4-(furo[3,2-c]pyridin-4-yl)-N-[1-(2-hydroxy-2-methylpropanoyl)piperidin-4-yl]benzamide]	1.4 nM
CCCCCCNC(=O)c1ccc(-c2nccc3[nH]ccc23)cc1 [Example 6, N-hexyl-4-(1H-pyrrolo[3,2-c]pyridin-4-yl)benzamide]	1.8 nM
O=C(NCc1cccc(Cl)c1)c1ccc(-c2nccc3[nH]ccc23)cc1 [Example 57, N-(3-chlorobenzyl)-4-(1H-pyrrolo[3,2-c]pyridin-4-yl)benzamide]	1.4 nM
CC(C)(O)[C@H]1CC[C@H](NC(=O)c2ccc(-c3ncc(C(N)=O)c4occc34)cc2)CC1 [Example 140, 4-(4-([trans-4-(2-hydroxypropan-2-yl)cyclohexyl]carbamoyl)phenyl)furo[3,2-c]pyridine-7-carboxamide]	224 nM
O=C(Nc1ccc(N2CCC(C(=O)N3CCOCC3)CC2)c(F)c1)c1ccc(-c2nccc3occc23)cc1 [Example 223, N-{3-fluoro-4-[4-(morpholine-4-carbonyl)piperidin-1-yl]phenyl}-4-(furo[3,2-c]pyridin-4-yl)benzamide]	5.3 nM
O=C(NC1CCC1)c1ccc(-c2nccc3occc23)cc1 [Example 86, N-cyclobutyl-4-(furo[3,2-c]pyridin-4-yl)benzamide]	21 nM
O=C(NC(CO)c1ccccn1)c1ccc(-c2nccc3occc23)cc1 (stereo not shown) [Example 220, 4-(furo[3,2-c]pyridin-4-yl)-N-[2-hydroxy-1-(pyridin-2-yl)ethyl]benzamide]	68 nM
Cc1cc2occc2c(-c2ccc(C(=O)N[C@H]3CC[C@H](OCC(C)(C)O)CC3)cc2)n1 [Example 342, N-[trans-4-(2-hydroxy-2-methylpropoxy)cyclohexyl]-4-(6-methylfuro[3,2-c]pyridin-4-yl)benzamide]	3 nM
O=C(NC1CCN(c2nnnn2C2CC2)CC1)c1ccc(-c2nccc3occc23)cc1 [Example 243, N-[1-(1-cyclopropyl-1H-tetrazol-5-yl)piperidin-4-yl]-4-(furo[3,2-c]pyridin-4-yl)benzamide]	2 nM

These reach a lower IC50. Values come first.

IC50	Structure (SMILES)
1 nM	CC(C)(O)[C@H]1CC[C@H](NC(=O)c2ccc(-c3nccc4[nH]ccc34)c(F)c2)CC1 [Example 340, 3-fluoro-N-[trans-4-(2-hydroxypropan-2-yl)cyclohexyl]-4-(1H-pyrrolo[3,2-c]pyridin-4-yl)benzamide]
1.1 nM	O=C(N[C@H]1CC[C@H](NCC(F)F)CC1)c1ccc(-c2nccc3occc23)cc1 [Example 294, N-{trans-4-[(2,2-difluoroethyl)amino]cyclohexyl}-4-(furo[3,2-c]pyridin-4-yl)benzamide]
1.1 nM	O=C(N[C@H]1CC[C@H](C2(O)CC2)CC1)c1ccc(-c2nccc3occc23)c(F)c1 [Example 327, 3-fluoro-4-(furo[3,2-c]pyridin-4-yl)-N-[trans-4-(1-hydroxycyclopropyl)cyclohexyl]benzamide]
0.8 nM	O=C(NC1CCN(c2nccc(CO)n2)CC1)c1ccc(-c2nccc3occc23)cc1 [Example 187, 4-(furo[3,2-c]pyridin-4-yl)-N-{1-[4-(hydroxymethyl)pyrimidin-2-yl]piperidin-4-yl}benzamide]
0.99 nM	CC(C)NC(=O)c1ccc(-c2nccc3[nH]ccc23)cc1 [Example 15, N-isopropyl-4-(1H-pyrrolo[3,2-c]pyridin-4-yl)benzamide]
0.83 nM	O=C(NCC1CCCC1)c1ccc(-c2nccc3[nH]ccc23)cc1 [Example 36, N-(cyclopenthyl-methyl)-4-(1H-pyrrolo[3,2-c]pyridin-4-yl)benzamide]
1.1 nM	NC(=O)c1cnc(N2CCC(NC(=O)c3ccc(-c4nccc5occc45)cc3)CC2)nc1 [Example 174, 2-{4-[4-(furo[3,2-c]pyridin-4-yl)benzamide]piperidin-1-yl}pyrimidine-5-carboxamide]
1.2 nM	Cc1cc(=O)[nH]c(N2CCC(NC(=O)c3ccc(-c4nccc5occc45)cc3)CC2)n1 [Example 181, 4-(furo[3,2-c]pyridin-4-yl)-N-[1-(4-methyl-6-oxo-1,6-dihydropyrimidin-2-yl)piperidin-4-yl]benzamide]
